Assay results taken from patent publication EP4789680A1, “NOVEL PACE4 INHIBITOR AND USE THEREOF IN ANTI-OSTEOARTHRITIS” (Inflamax Pharmaceuticals Limited, priority 2023, dated 2025).
Where a SMILES comes first, the peptide text is derived from it. Where no end group is shown, it is not given here. [ ]: non-standard residue; d: D form. ξ: configuration not given here. Abu(1-amidino-4-piperidyl) = N=C(N)N1CCC(CC[C@H](N)C(=O)O)CC1; Phe(4-guanidino) = N=C(N)Nc1ccc(C[C@H](N)C(=O)O)cc1; Phe(4-CF3) = N[C@@H](Cc1ccc(C(F)(F)F)cc1)C(=O)O; dThr(3ξ) = CC(O)[C@@H](N)C(=O)O

T1: PACE4 (Homo sapiens, UniProt P29122)
T1 sequence (P29122 150-969): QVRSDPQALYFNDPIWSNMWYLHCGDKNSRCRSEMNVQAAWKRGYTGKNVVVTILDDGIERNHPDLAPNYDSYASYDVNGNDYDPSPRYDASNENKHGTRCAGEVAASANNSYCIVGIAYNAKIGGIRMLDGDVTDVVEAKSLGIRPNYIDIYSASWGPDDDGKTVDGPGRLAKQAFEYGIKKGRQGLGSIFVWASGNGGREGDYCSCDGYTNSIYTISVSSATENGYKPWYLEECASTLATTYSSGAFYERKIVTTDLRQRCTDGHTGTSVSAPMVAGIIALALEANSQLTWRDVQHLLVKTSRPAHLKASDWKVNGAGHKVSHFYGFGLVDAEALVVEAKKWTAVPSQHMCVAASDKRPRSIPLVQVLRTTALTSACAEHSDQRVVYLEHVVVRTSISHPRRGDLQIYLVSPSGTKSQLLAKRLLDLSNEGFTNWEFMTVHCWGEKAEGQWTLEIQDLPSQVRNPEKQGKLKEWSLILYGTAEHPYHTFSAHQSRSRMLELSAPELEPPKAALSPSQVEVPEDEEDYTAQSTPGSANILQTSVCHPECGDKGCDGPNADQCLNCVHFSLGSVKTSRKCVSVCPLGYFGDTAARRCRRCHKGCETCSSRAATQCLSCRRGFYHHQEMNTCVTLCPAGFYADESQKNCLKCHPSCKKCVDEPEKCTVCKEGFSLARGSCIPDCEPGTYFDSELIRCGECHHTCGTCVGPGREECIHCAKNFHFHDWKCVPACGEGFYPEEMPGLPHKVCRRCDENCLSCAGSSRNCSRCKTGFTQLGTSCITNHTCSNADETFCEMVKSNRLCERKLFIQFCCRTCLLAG

T2: PACE4 (UniProt P29122 150-969, limits assumed)
T2 sequence (looked up): T1 sequence (P29122 150-969)

B1: dP-dR-R-F-K-R-dT-NH2 (peptide)
peptide: [dP][dR]RFKR[dT]-NH2
modifications: N-terminus assumed
SMILES: C[C@H](O)[C@@H](NC(=O)[C@H](CCCNC(=N)N)NC(=O)[C@H](CCCCN)NC(=O)[C@H](Cc1ccccc1)NC(=O)[C@H](CCCNC(=N)N)NC(=O)[C@@H](CCCNC(=N)N)NC(=O)[C@H]1CCCN1)C(N)=O
B2: P-dR-R-F-K-R-dT-NH2 (peptide)
peptide: P[dR]RFKR[dT]-NH2
modifications: N-terminus assumed
SMILES: C[C@H](O)[C@@H](NC(=O)[C@H](CCCNC(=N)N)NC(=O)[C@H](CCCCN)NC(=O)[C@H](Cc1ccccc1)NC(=O)[C@H](CCCNC(=N)N)NC(=O)[C@@H](CCCNC(=N)N)NC(=O)[C@@H]1CCCN1)C(N)=O
B3: Ac-R-F(4-CF3)-K-R-dT-NH2 (peptide)
peptide: Ac-R[Phe(4-CF3)]KR[dT]-NH2
SMILES: CC(=O)N[C@@H](CCCNC(=N)N)C(=O)N[C@@H](Cc1ccc(C(F)(F)F)cc1)C(=O)N[C@@H](CCCCN)C(=O)N[C@@H](CCCNC(=N)N)C(=O)N[C@@H](C(N)=O)[C@H](C)O
B4: Ac-R-F(4-CF3)-K-R-T-NH2 (peptide)
peptide: Ac-R[Phe(4-CF3)]KRT-NH2
SMILES: CC(=O)N[C@@H](CCCNC(=N)N)C(=O)N[C@@H](Cc1ccc(C(F)(F)F)cc1)C(=O)N[C@@H](CCCCN)C(=O)N[C@@H](CCCNC(=N)N)C(=O)N[C@H](C(N)=O)[C@@H](C)O

Each molecule was assayed against T1, PACE4 (assay: PACE4 enzyme inhibition experiment (fluorogenic substrate, competitive inhibition)). Settings: substrate pyroGlu-Arg-Val-Lys-Arg-methyl-coumaryl-7-amide 100 µM, pH 6.5, 37°C, 60 min.
Format: biochemical
Protocol: The PACE4 inhibitory peptides obtained from the above example were subjected to in vitro assay of PACE4 inhibitory effect. The specific steps were as follows: the PACE4 enzyme inhibition experiment was performed in a solution containing 20 mM Bis-Tis at pH 6.5, 1 mM CaCl2, and 1.8 mg/mL BSA. All assays were performed using pyroGlu-Arg-Val-Lys-Arg-methyl-coumaryl-7-amide (Bachem, CA) (100 µM) as the substrate. The assay was conducted at 37°C for 60 min. A Gemini EM 96-well fluorescence spectrometer (Molecular Devices, CA) (Ex: 370 nm, Em: 460 nm) was used. The PACE4 inhibitory peptide involved in the present patent was added to the test solution at different concentrations for competitive inhibition assay to determine the IC50 value of the peptide.

`CC(=O)N[C@@H](CCCNC(=N)N)C(=O)N[C@@H](CCCNC(=N)N)C(=O)N[C@@H](CCC1CCN(C(=N)N)CC1)C(=O)N[C@@H](CCCCN)C(=O)N[C@@H](CCCNC(=N)N)C(=O)N[C@@H](C(N)=O)C(C)O` (stereo partly drawn) [Ac-R-R-A(4-Pip)-K-R-dT-NH2] (Ac-RR[Abu(1-amidino-4-piperidyl)]KR[dThr(3ξ)]-NH2) and `CC(=O)N[C@@H](CCCNC(=N)N)C(=O)N[C@@H](CCCNC(=N)N)C(=O)N[C@@H](Cc1ccc(C(F)(F)F)cc1)C(=O)N[C@@H](CCCCN)C(=O)N[C@@H](CCCNC(=N)N)C(=O)N[C@@H](C(N)=O)[C@H](C)O` [Ac-R-R-F(4-CF3)-K-R-dT-NH2] (Ac-RR[Phe(4-CF3)]KR[dT]-NH2) are the same in IC50: 90 nM for the first, 90 nM for the second.

`C[C@H](O)[C@@H](NC(=O)[C@H](CCCNC(=N)N)NC(=O)[C@H](CCCCN)NC(=O)[C@H](Cc1ccc(C(F)(F)F)cc1)NC(=O)[C@H](CCCNC(=N)N)NC(=O)[C@@H](CCCNC(=N)N)NC(=O)[C@@H]1CCCN1)C(N)=O` [P-dR-R-F(4-CF3)-K-R-dT-NH2] (H-P[dR]R[Phe(4-CF3)]KR[dT]-NH2) and `C[C@H](O)[C@@H](NC(=O)[C@H](CCCNC(=N)N)NC(=O)[C@H](CCCCN)NC(=O)[C@H](Cc1ccc(C(F)(F)F)cc1)NC(=O)[C@H](CCCNC(=N)N)NC(=O)[C@@H](CCCNC(=N)N)NC(=O)[C@H]1CCCN1)C(N)=O` [dP-dR-RF(4-CF3)-K-R-dT-NH2, dP-dR-R-F(4-CF3)-K-R-dT-NH2] (H-[dP][dR]R[Phe(4-CF3)]KR[dT]-NH2) are the same in IC50: 20 nM for the first, 20 nM for the second.

Compared with `C[C@H](O)[C@@H](NC(=O)[C@H](CCCNC(=N)N)NC(=O)[C@H](CCCCN)NC(=O)[C@H](Cc1ccccc1)NC(=O)[C@H](CCCNC(=N)N)NC(=O)[C@@H](CCCNC(=N)N)NC(=O)[C@@H]1CCCN1)C(N)=O` [P-dR-R-F-K-R-dT-NH2] (H-P[dR]RFKR[dT]-NH2), `C[C@H](O)[C@@H](NC(=O)[C@H](CCCNC(=N)N)NC(=O)[C@H](CCCCN)NC(=O)[C@H](Cc1ccccc1)NC(=O)[C@H](CCCNC(=N)N)NC(=O)[C@@H](CCCNC(=N)N)NC(=O)[C@H]1CCCN1)C(N)=O` [dP-dR-R-F-K-R-dT-NH2] (H-[dP][dR]RFKR[dT]-NH2) is 3.5-fold higher in IC50: 20 nM for the first, 70 nM for the second. The first is the more potent here.

The molecules below were run against T2, PACE4 (assay: cell-based or functional assay). Settings: not given.

Compared with B1, B2 is 3.5-fold lower in “IC50 (µM), PACE4 enzyme inhibition, fluorogenic substrate pyroGlu-Arg-Val-Lys-Arg-methyl-coumaryl-7-amide” value: 0.07 µM for the first, 0.02 µM for the second.

Compared with B3, B4 is 2.1-fold higher in “IC50 (µM), PACE4 enzyme inhibition, fluorogenic substrate pyroGlu-Arg-Val-Lys-Arg-methyl-coumaryl-7-amide” value: 0.35 µM for the first, 0.74 µM for the second.

The molecules below were run on traumatic osteoarthritis model (assay: MMT surgery traumatic osteoarthritis model, test for preventive efficacy). Settings: compared to the OA group; intra-articular injection 3 days and 1 day before MMT surgery; 0.1 mg/kg; sacrificed day 7.
Format: in vivo, SD rats
Protocol: In this example, a traumatic osteoarthritis model was established by performing a medial meniscus tear (MMT) surgery to verify the preventive effect of the PACE4 inhibitory peptides on OA. In the test for preventive efficacy, the PACE4 inhibitory peptide was administered via intra-articular injection 3 days and 1 day before the modeling surgery (i.e., a total of 2 administrations). In the following examples, the dosage of PACE4 inhibitory peptide was 0.1 mg/kg animal body weight.
Specifically, in the test for preventive efficacy, 24 SD rats were divided into 3 groups (including a control group, an OA modeling group (surgery group), and an OA modeling + preventive administration group (surgery group + drug intervention)), with 8 rats per group. For the OA modeling + preventive administration group, intra-articular injections were administered 3 days and 1 day before MMT surgery. Rats in each group were sacrificed on day 7 after modeling, and joint tissues were collected. Each PACE4 inhibitory peptide was tested individually to determine the preventive effect of each PACE4 inhibitory peptide. Among them, the polypeptide Ac-R-F-K-R-NH2 (control molecule) was selected as a control example. […]

In the case of `CC(=O)N[C@@H](CCCNC(=N)N)C(=O)N[C@@H](Cc1ccccc1)C(=O)N[C@@H](CCCCN)C(=O)N[C@@H](CCCNC(=N)N)C(N)=O` [Ac-R-F-K-R-NH2] (Ac-RFKR-NH2), the “OARSI score reduced, preventive test” value is reported as 4%.

The molecules below were run on traumatic osteoarthritis model (assay: MMT surgery traumatic osteoarthritis model, test for therapeutic efficacy). Settings: compared to the OA group; intra-articular injection on day 3 and day 10 after MMT surgery; sacrificed day 14.
Format: in vivo, Sprague Dawley (SD) rats
Protocol: In this example, a traumatic osteoarthritis model was established by performing a medial meniscus tear (MMT) surgery to verify the therapeutic effect of the PACE4 inhibitory peptides on OA. In the test for therapeutic efficacy, the injections were administered on day 3 and day 10 after the surgical modeling (i.e., a total of 2 administrations).
Specifically, in the test for therapeutic efficacy, 24 Sprague Dawley (SD) rats were divided into 3 groups (including a control group, an OA modeling group (surgery group), and an OA modeling + therapeutic administration group (surgery group + drug intervention)), with 8 rats per group. For the OA modeling + therapeutic administration group, intra-articular injections were administered on day 3 and day 10 after MMT surgery. Rats in each group were sacrificed on day 14 after modeling, and joint tissues were collected. Each PACE4 inhibitory peptide was tested individually to determine the therapeutic effect of each PACE4 inhibitory peptide. Among them, the polypeptide Ac-R-F-K-R-NH2 (control molecule) was selected as a control example.
Cartilage tissue was collected from each group as samples. The collected cartilage tissue samples were decalcified according to conventional procedures in the art, then embedded in paraffin, and sectioned at a thickness of 7 µm. Safranin O-fast green staining was performed, and the cartilage degeneration was assessed using OARSI scoring. In addition, TRAP staining was performed to determine the subchondral bone resorption in rats before and after MMT surgery and during treatment with the PACE4 inhibitory peptide.

Going from `CC(=O)N[C@@H](CCCNC(=N)N)C(=O)N[C@@H](Cc1ccccc1)C(=O)N[C@@H](CCCCN)C(=O)N[C@@H](CCCNC(=N)N)C(N)=O` [Ac-R-F-K-R-NH2] (Ac-RFKR-NH2) to `CC(=O)N[C@H](CCCNC(=N)N)C(=O)N[C@@H](CCCNC(=N)N)C(=O)N[C@@H](Cc1ccccc1)C(=O)N[C@@H](CCCCN)C(=O)N[C@@H](CCCNC(=N)N)C(=O)N[C@@H](C(N)=O)[C@H](C)O` [Ac-dR-R-F-K-R-dT-NH2] (Ac-[dR]RFKR[dT]-NH2), the “OARSI score reduced, therapeutic test” value rises from 10% to 28%.

Compared with `CC(=O)N[C@H](CCCNC(=N)N)C(=O)N[C@@H](CCCNC(=N)N)C(=O)N[C@@H](Cc1ccc(C(F)(F)F)cc1)C(=O)N[C@@H](CCCCN)C(=O)N[C@@H](CCCNC(=N)N)C(=O)N[C@@H](C(N)=O)[C@H](C)O` [Ac-dR-R-F(4-CF3)-K-R-dT-NH2] (Ac-[dR]R[Phe(4-CF3)]KR[dT]-NH2), `CC(=O)N[C@H](CCCNC(=N)N)C(=O)N[C@@H](CCCNC(=N)N)C(=O)N[C@@H](Cc1ccc(NC(=N)N)cc1)C(=O)N[C@@H](CCCCN)C(=O)N[C@@H](CCCNC(=N)N)C(=O)N[C@@H](C(N)=O)[C@H](C)O` [Ac-dR-R-F(4-Guan)-K-R-dT-NH2] (Ac-[dR]R[Phe(4-guanidino)]KR[dT]-NH2) is higher in “OARSI score reduced, therapeutic test” value: 34.6% for the first, 38.5% for the second.
